Assay results as given in patent US6492124B1, “Trance activated signal transduction pathways in osteoclasts” (The Rockefeller University, priority 1999, dated 2002).

Target: T1, TRANCE-R signaling complex (Mus musculus, UniProt O35305)
T1 construct: the endogenous TRANCE-R was immunoprecipitated from the extracts (2 mg of total protein); endogenous in cells; host or cells: mature bone marrow-derived dendritic cells of C57BL/6 mice
Experiment: TRANCE-R immunoprecipitation from dendritic cells: co-precipitated TRAF6/c-Src and SAM68 kinase assay
Format: cell-based
Method: FIG. 5. Ligand dependant recruitment of endogenous TRAF6 and c-Src proteins to the TRANCE-R signaling complex. (A) Dendritic cells were stimulated with TRANCE (1 μg/ml) for the indicated times, lysed, and c-Src was immunoprecipitated from the extracts (400 μg total protein), using an anti-c-Src-specific monoclonal antibody (327). PTK activity of the c-Src immunoprecipitates was measured by in vitro kinase assays using SAM68 as a PTK substrate. The degree of SAM68 phosphorylation (SAM68^P) was determined by Western blot analysis using a phospho-tyrosine specific antibody (4G10) followed by densitometry. (B) Dendritic cells (3×10^7) were treated with TRANCE (1 μg/ml) for 5 minutes or left untreated (0 minutes). […] The degree of SAM68 phosphorylation (SAM68^P) was determined as in (A). The presence of endogenous TRAF6 or c-Src in the remaining α-TRANCE-R immunoprecipitates (IP) were analyzed by Western blotting using TRAF6 (H-274) and c-Src specific antibodies (N16), respectively, as indicated. […]
For the in vitro kinase-assays in FIGS. 3A, 4D, and 5B the beads were washed twice with extraction buffer and three times with kinase buffer (30 mM HEPES.NaOH (pH 7.4), 20 mM MgCl2, 2 mM MnCl2, 1 mM dithiothreitol). […] Phosphorylation of SAM68 was detected by autoradiography or by probing Western blots with 4G10. […]

TNF-related activation-induced cytokine [TRANCE]
TRAF6 and c-Src in the TRANCE-R complex (TRANCE 1 μg/ml 5 minutes vs untreated): readily detected
PTK activity of the receptor complex towards SAM68 (TRANCE 1 μg/ml 5 minutes, in vitro kinase assay): acquired PTK activity
